Measurements as given in patent publication US20030022876A1, “Sustained-release analgesic compounds” (priority 2001, published 2003).

How the values were obtained:
[1] = Stability (half-life) in 0.1 M phosphate buffer, pH 7.4, at 37° C., HPLC analysis; type: physicochemical; details: pH 7.4, 37° C.
Method: (§1) This stock solution was diluted 10 fold in either 0.1 M phosphate buffer, pH 7.4, or human plasma, and the working solution was placed in a water bath at 37° C. Samples had been taken every hour for the plasma and every couple of hours for the buffer.

[2] = Stability (half-life) in human plasma at 37° C., HPLC analysis; type: in vitro ADME; details: stock solution diluted 10 fold
Method: as §1

| SMILES | half-life at 0.1 mg/ml [1] [min] | half-life at 0.1 mg/ml [2] [min] |
| --- | --- | --- |
| CN1CC[C@]23c4c5ccc(OC(=O)Cc6ccccc6Nc6c(Cl)cccc6Cl)c4O[C@H]2[C@@H](O)C=C[C@H]3[C@H]1C5 [Inventive compound (10)] | 150 ± 30 | 21 ± 1 |
| COc1ccc2cc(C(C)C(=O)OCOC(=O)Oc3ccc4c5c3O[C@H]3[C@@H](O)C=CC6[C@@H](C4)N(C)CC[C@@]563)ccc2c1 (stereo partly shown) [Inventive compound (16)] | 456 ± 30 | 3.5 ± 0.6 |
